Experimental data from US9233961B2, “Compounds and compositions for the treatment of parasitic diseases” (Novartis AG, priority 2013, dated 2016).
pEC50: −log10 of the molar value. Like-named read-outs stand apart in the source and are kept apart here.

Legend:
[1] = tested on: Leishmania donovani axenic amastigote parasites; assay: Leishmania donovani axenic amastigote proliferation assay; assay type: cell-based
Description: Leishmania Donovani Axenic Amastigote Proliferation Assay
Leishmania donovani axenic amastigote parasites are grown at 37° C., 5% CO2 in media made of RPMI 1640, 4 mM L-glutamine, 20% heat inactivated FBS, 100 units/ml of penicillin and 100 μg/ml of streptomycin, 23 μM Folic Acid, 100 μM Adenosine, 22 mM D-glucose, 25 mM MES. The pH of media is adjusted to 5.5 at 37° C. using HCl. 20 μL of media is first dispensed into 384 well plates and 100 nL of the compounds of invention in DMSO are added to the plate wells. At the same time control compounds and DMSO are added to plates to serve as the positive and negative controls, respectively. 40 μL of parasite culture (9600 parasites) are then added to the plate wells. The plates are then placed into incubators. After 2 day incubation, 20 μL of Cell TiterGlo (Promega) is added to the plate wells. The luminescence signal of each well is measured using the Envision reader (Perkin Elmer). The percentage inhibition of 50%, EC50, is calculated for each of the compounds.

[2] = tested on: L. donovani HU3 strain in mouse peritoneal macrophages; assay: Assay for proliferation of Leishmania parasites in mouse peritoneal macrophages; assay type: cell-based, Leishmania donovani; details: Leishmania donovani, Peritoneal macrophage, read-out: L. donavani Macrophage EC50
Source text: Assay for Proliferation of Leishmania Parasites
The activity of a compound according to the present invention for inhibition of parasitemai can be assessed by the parasite proliferation assay. The assay measures the increase in the parasite number in the assayed plate well using a DNA intercalating dye, SYBR Green I® dye (INVITROGEN) to stain Leishmania cell nuclei. It is understood that the assays illustrate the invention without in any way limiting the scope of the invention.
L. donovani HU3 strain is propagated by infecting BALB/c mice through tail vein injection with 10^7 Leishmania parasites. Infected mice are allowed to develop infection during 9-11 weeks post-infection. During this time, the parasites accumulate in the infected mouse spleens to large numbers, and the infected mice serve as the source of parasites for the in vitro measurement of compound efficacies. To assay a compound for anti-leishmanial activity, peritoneal macrophages isolated from non-infected BALB/c mice are seeded into 384-well plates at density 2×10^4 macrophages per well in […] of medium (RPMI 1640, 10% […], 10 mM HEPES, 1 mM sodium pyruvate, 1% Pen/Strep). Subsequently, the seeded plates are placed into an incubator set to maintain 37° C. temperature and atmosphere with 5% CO2. The next day, Leishmania parasites are isolated from the spleens of mice infected for 9-11 weeks and 4×10^5 isolated parasites in […] of the above media are added to each plate well. Plates are then returned into incubators and infection is allowed to proceed for 24 hours. After the infection of macrophages is completed, […] of compounds of the invention in the above medium, which also contains 5% DMSO, are added to plate wells containing infected macrophages. At the same time control compounds (miltefosine and amphotericin B) and DMSO are added to plates to serve as the positive and negative controls, respectively. After the compound addition, the plates are returned into incubator and cells infected with parasites are cultured for 5 days. At the end of cultivation, […] of 8% paraformaldehyde is added to plate wells and incubated for 15 min at room temperature. Following the incubation, the paraformaldehyde from plate wells is aspirated, and […] of PBS containing 0.2% Triton X-100 is added to wells. After 15 min incubation, the solution is aspirated from wells again, and replaced with SybrGreen Dye solution in PBS (1:125,000 dilution). Infected cells are imaged with Evotec Opera high-content microscope, and the number of parasites in well is determined by counting parasite nuclei visualized by staining with SybrGreen dye. The percentage inhibition of 50%, EC50, is calculated for each compound.
The inhibitory efficacy of the compounds of the invention in delaying the proliferation of L. donovani in mouse peritoneal macrophages is provided in Table I, infra.

[3] = axenic amastigotes in vitro, read-out: L. donovani amastigotes EC50

For `O=C(Nc1ccc(Cl)c(-c2nc3ncc(-c4ccc(N5CCNCC5)cc4)cc3[nH]2)c1)N1CCCC1` [Compound 294], the pEC50 [1, 3] was less than 4.60 and the pEC50 [2] was 4.77.

Compound `O=C(Nc1ccc(F)c(-c2nc3ncc(-c4ccc(OCCN5CCOCC5)cc4)cc3[nH]2)c1)N1CCCC1` [Compound 295] has a pEC50 [1, 3] of 5.54 and a pEC50 [2] of 5.90.

With `COC(=O)Nc1ccc(-c2cnc3nc(-c4cc(NC(=O)N5CCCC5)ccc4Cl)[nH]c3c2)cc1` [Compound 296] the pEC50 [1, 3] was 7.47 and the pEC50 [2] was 6.90.

Compound `O=C(Nc1ccc(F)c(-c2nc3ncc(-c4cnn(C5CCNCC5)c4)cc3[nH]2)c1)N1CCCC1` [Compound 298] has a pEC50 [1, 3] of less than 4.60 and a pEC50 [2] of less than 4.30.

With `O=C(Nc1ccc(Cl)c(-c2nc3ncc(-c4ccc(OCCN5CCOCC5)cc4)cc3[nH]2)c1)N1CCCC1` [Compound 299] the pEC50 [1, 3] was 6.14 and the pEC50 [2] was 6.68.

`O=C(Nc1ccc(Cl)c(-c2nc3ncc(-c4ccsc4)cc3[nH]2)c1)N1CCCC1` [Compound 300] was tested, and the pEC50 [1, 3] was 6.84 and the pEC50 [2] was 6.54.

Compound `O=C(Nc1ccc(Cl)c(-c2nc3ncc(-c4cccc(OCCN5CCOCC5)c4)cc3[nH]2)c1)N1CCCC1` [Compound 301] has a pEC50 [1, 3] of 6.04 and a pEC50 [2] of 5.98.

Work on `O=C(Nc1ccc(Cl)c(-c2nc3ncc(-c4ccc(OCCCN5CCOCC5)cc4)cc3[nH]2)c1)N1CCCC1` [Compound 302] yielded a pEC50 [1, 3] of 5.23 and a pEC50 [2] of 5.00.

`COCCOc1ccc(-c2cnc3nc(-c4cc(NC(=O)N5CCCC5)ccc4Cl)[nH]c3c2)cc1` [Compound 303] gave a pEC50 [1, 3] of 6.84 and a pEC50 [2] of 6.40.

`CC(C)(CN)c1ccc(-c2cnc3nc(-c4cc(NC(=O)N5CCCC5)ccc4Cl)[nH]c3c2)cc1` [Compound 304] was tested, and the pEC50 [1, 3] was 5.02 and the pEC50 [2] was 5.33.

With `C[Si](C)(C)CCOCn1cnc(-c2cnc3nc(-c4cc(NC(=O)N5CCCC5)ccc4Cl)[nH]c3c2)c1` [Compound 306] the pEC50 [1, 3] was 6.68 and the pEC50 [2] was 6.74.

With `O=C(Nc1ccc(Cl)c(-c2nc3ncc(-c4c[nH]cn4)cc3[nH]2)c1)N1CCCC1` [Compound 307] the pEC50 [1, 3] was less than 4.60 and the pEC50 [2] was less than 4.30.

Work on `O=C(Nc1ccc(F)c(-c2nc3ncc(-c4ccc(OCC5CO5)cc4)cc3[nH]2)c1)N1CCCC1` (stereo not shown) [Compound 310] yielded a pEC50 [1, 3] of 5.71 and a pEC50 [2] of 5.34.

Compound `CN1CCN(CCOc2ccc(-c3cnc4nc(-c5cc(NC(=O)N6CCCC6)ccc5F)[nH]c4c3)cc2)CC1` [Compound 311] has a pEC50 [1, 3] of less than 4.60 and a pEC50 [2] of less than 5.16.

For `COCCOc1ccc(-c2cnc3nc(-c4cc(NC(=O)N5CCCC5)ccc4F)[nH]c3c2)cc1` [Compound 312], the pEC50 [1, 3] was 5.76 and the pEC50 [2] was 5.43.

`CC(C)OC(=O)Nc1ccc(Cl)c(-c2nc3ncc(-c4ccccc4N)cc3[nH]2)c1` [Compound 334] was tested, and the pEC50 [1, 3] was 6.59 and the pEC50 [2] was 6.00.

`CC(C)OC(=O)Nc1ccc(Cl)c(-c2nc3ncc(-c4ccccc4NC(=O)OC(C)C)cc3[nH]2)c1` [Compound 335] showed a pEC50 [1, 3] of 6.22 and a pEC50 [2] of 5.96.

Work on `CC(C)OC(=O)Nc1ccc(Cl)c(-c2nc3ncc(-c4ccccc4NC(=O)OC(C)C)cc3n2C(=O)OC(C)C)c1` [Compound 336] yielded a pEC50 [1, 3] of 5.72 and a pEC50 [2] of 5.66.

`CC(C)OC(=O)Nc1ccc(-c2cnc3nc(-c4cc(NC(=O)OC(C)C)ccc4Cl)[nH]c3c2)cc1` [Compound 337] showed a pEC50 [1, 3] of 6.92 and a pEC50 [2] of 6.53.

`CC(C)OC(=O)Nc1ccc(Cl)c(-c2nc3ncc(-c4ccc(NC(=O)CN)cc4)cc3[nH]2)c1` [Compound 338] gave a pEC50 [1, 3] of 5.62 and a pEC50 [2] of 6.38.

In the case of `CC(C)OC(=O)Nc1ccc(Cl)c(-c2nc3ncc(-c4ccc(NC(=O)CCN)cc4)cc3[nH]2)c1` [Compound 339], the pEC50 [1, 3] was 5.43 and the pEC50 [2] was 5.74.

`CC(C)OC(=O)Nc1ccc(Cl)c(-c2nc3ncc(-c4ccccc4NC(=O)CN)cc3[nH]2)c1` [Compound 340] showed a pEC50 [1, 3] of 4.93 and a pEC50 [2] of 5.01.

`COC(=O)Nc1ccc(-c2cnc3nc(-c4cc(NC(=O)OC(C)C)ccc4Cl)[nH]c3c2)cc1` [Compound 341, methyl N-{4-[2-(2-chloro-5-{[(propan-2-yloxy)carbonyl]amino}phenyl)-1H-imidazo[4,5-b]pyridin-6-yl]phenyl}carbamate] showed a pEC50 ([1]; 48 h, L. donovani axenic amastigotes, 2 day incubation, Cell TiterGlo luminescence, read-out: EC50) of roughly 7.10, a pEC50 [1, 3] of 7.10 and a pEC50 [2] of 6.64.

`CC(C)OC(=O)Nc1ccc(Cl)c(-c2nc3ncc(-c4ccccc4NC(=O)CCN)cc3[nH]2)c1` [Compound 342] showed a pEC50 [1, 3] of less than 4.60 and a pEC50 [2] of 4.41.

Compound `COC(=O)Nc1ccc(-c2cnc3nc(-c4cc(NC(=O)N5CCC5)ccc4Cl)[nH]c3c2)cc1` [Compound 344] has a pEC50 [1, 3] of 5.12 and a pEC50 [2] of 4.77.

For `CNc1ccc(-c2cnc3nc(-c4cc(NC(=O)c5ccc(CN(C)C)o5)ccc4Cl)[nH]c3c2)cc1` [Compound 347], the pEC50 [1, 3] was less than 4.60 and the pEC50 [2] was 5.14.

`CN(C)C(=O)Nc1ccc(F)c(-c2nc3ncc(Cl)cc3[nH]2)c1` [Compound 354] was tested, and the pEC50 [1, 3] was less than 4.60 and the pEC50 [2] was less than 4.30.

`CCN(CC)C(=O)Nc1ccc(F)c(-c2nc3ncc(Cl)cc3[nH]2)c1` [Compound 355] gave a pEC50 [1, 3] of less than 4.60 and a pEC50 [2] of less than 4.30.

Work on `O=C(Nc1ccc(C(F)(F)F)cc1)Nc1ccc(F)c(-c2nc3ncc(Cl)cc3[nH]2)c1` [Compound 356] yielded a pEC50 [1, 3] of less than 4.60 and a pEC50 [2] of 4.71.

`CC(C)(C)C(=O)Nc1ccc(F)c(-c2nc3ncc(Cl)cc3[nH]2)c1` [Compound 358] was tested, and the pEC50 [1, 3] was less than 4.60 and the pEC50 [2] was less than 4.30.

`O=C(CCN1CCCCC1)Nc1ccc(F)c(-c2nc3ncc(Cl)cc3[nH]2)c1` [Compound 359] was tested, and the pEC50 [1, 3] was less than 4.60 and the pEC50 [2] was less than 4.45.

Work on `CC(C)N(C(=O)Nc1ccc(F)c(-c2nc3ncc(Br)cc3[nH]2)c1)C(C)C` [Compound 362] yielded a pEC50 [1, 3] of less than 4.60 and a pEC50 [2] of 5.12.

Work on `O=C(Nc1ccc(F)c(-c2nc3ncc(Br)cc3[nH]2)c1)N1CCOCC1` [Compound 365] yielded a pEC50 [1, 3] of 4.70 and a pEC50 [2] of less than 4.30.

`O=C(Nc1ccc(F)c(-c2nc3ncc(Br)cc3[nH]2)c1)c1cc[nH]n1` [Compound 368] showed a pEC50 [1, 3] of 4.72 and a pEC50 [2] of less than 4.30.

For `O=C(Nc1ccc(Cl)c(-c2nc3ncc(Br)cc3[nH]2)c1)c1cocn1` [Compound 369], the pEC50 [1, 3] was less than 4.60 and the pEC50 [2] was less than 4.30.

With `O=C(Nc1ccc(Cl)c(-c2nc3ncc(Br)cc3[nH]2)c1)c1ccc(F)o1` [Compound 373] the pEC50 [1, 3] was 6.26 and the pEC50 [2] was 5.67.

In the case of `CN(C)CCn1c(-c2cc(NC(=O)N3CCCC3)ccc2Cl)nc2ncc(Br)cc21` [Compound 387], the pEC50 [1, 3] was less than 4.60 and the pEC50 [2] was less than 4.30.

In the case of `O=C(Nc1ccc(Cl)c(-c2nc3ncc(Br)cc3n2CCN2CCOCC2)c1)N1CCCC1` [Compound 388], the pEC50 [1, 3] was less than 4.60 and the pEC50 [2] was less than 4.30.

Compound `CN(C)c1ccc(-c2cnc3nc(-c4cc(NC(=O)Nc5ccc(C(F)(F)F)cc5)ccc4F)oc3c2)cc1` [Compound 390] has a pEC50 [1, 3] of 4.90 and a pEC50 [2] of 4.74.

`O=C(Nc1ccc(C(F)(F)F)cc1)Nc1ccc(F)c(-c2nc3ncc(-c4ccc(NCCN5CCOCC5)nc4)cc3o2)c1` [Compound 391] showed a pEC50 [1, 3] of less than 4.60 and a pEC50 [2] of less than 4.91.

`O=C(Nc1ccc(C(F)(F)F)cc1)Nc1ccc(F)c(-c2nc3ncc(-c4ccc(N5CCOCC5)cc4)cc3o2)c1` [Compound 392] showed a pEC50 [1, 3] of less than 4.60 and a pEC50 [2] of 5.08.

`CNc1ccc(-c2cnc3nc(-c4cc(NC(=O)Nc5ccc(C(F)(F)F)cc5)ccc4F)oc3c2)cc1` [Compound 393] gave a pEC50 [1, 3] of less than 4.90 and a pEC50 [2] of less than 4.30.

`Cc1n[nH]cc1-c1cnc2nc(-c3cc(NC(=O)Nc4ccc(C(F)(F)F)cc4)ccc3F)oc2c1` [Compound 394] showed a pEC50 [1, 3] of 4.93 and a pEC50 [2] of 5.32.

Compound `O=C(Nc1ccc(C(F)(F)F)cc1)Nc1ccc(F)c(-c2nc3ncc(-c4ccc(CN5CCOCC5)cc4)cc3o2)c1` [Compound 395] has a pEC50 [1, 3] of 4.92 and a pEC50 [2] of 5.17.

`CC(C)OC(=O)Nc1ccc(-c2cnc3nc(-c4cc(NC(=O)Nc5ccc(C(F)(F)F)cc5)ccc4F)oc3c2)cc1` [Compound 396] showed a pEC50 [1, 3] of 4.79 and a pEC50 [2] of less than 4.30.
